According to ChEMBL document CHEMBL5375962 (J Med Chem, 2023):
≈ marks a conversion by molar mass, not a printed value.

Legend:
Ketohexokinase [1] = target: T1, Ketohexokinase (Homo sapiens, UniProt P50053); assay: Inhibition of KHK in human HepG2 cells incubated for 3 hrs by Rapidfire MS analysis; format: cell-based
T1 sequence (P50053 whole entry): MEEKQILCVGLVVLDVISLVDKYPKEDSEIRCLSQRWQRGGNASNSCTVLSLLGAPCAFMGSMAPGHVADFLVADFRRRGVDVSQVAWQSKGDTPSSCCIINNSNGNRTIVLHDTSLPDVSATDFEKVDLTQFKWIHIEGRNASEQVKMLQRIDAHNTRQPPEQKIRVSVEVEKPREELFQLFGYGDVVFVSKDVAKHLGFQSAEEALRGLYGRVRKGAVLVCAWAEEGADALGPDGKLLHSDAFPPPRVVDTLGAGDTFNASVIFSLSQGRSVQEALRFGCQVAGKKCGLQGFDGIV

Ketohexokinase [2] = target: T1, Ketohexokinase; assay: Inhibition of human KHK-C preincubated for 15 mins followed by substrate addition and measured after 20 mins in presence of ATP by Rapidfire MS analysis
[3] = Thermodynamic solubility of the compound […] at pH 7.4; format: physicochemical; details: read-out: Therm_solubility
[4] = Inhibition of mouse KHK-A
[5] = Metabolic stability in human liver microsomes assessed as compound degradation measured after 30 mins; format: ADME, Microsome; details: read-out: Drug degradation
Ketohexokinase [6] = target: T1, Ketohexokinase; assay: Inhibition of human KHK-A preincubated for 15 mins followed by substrate addition and measured after 20 mins in presence of ATP by Rapidfire MS analysis
[7] = Inhibition of mouse KHK-C
[8] = Metabolic stability in mouse liver microsomes assessed as compound degradation measured after 30 mins; format: ADME, Microsome; details: read-out: Drug degradation
[9] = Metabolic stability in rat liver microsomes assessed as compound degradation measured after 30 mins; format: ADME, Microsome; details: read-out: Drug degradation
[10] = Metabolic stability in dog liver microsomes assessed as compound degradation measured after 30 mins; format: ADME, Canis lupus familiaris, Microsome; details: read-out: Drug degradation
Hepatocyte = assay: Cytotoxicity against rat Primary hepatocyte; format: toxicity, cell-based; details: hepatocytes
[11] = Clearance in human hepatocytes measured per 10^6 cells; format: ADME, cell-based, Hepatocyte; details: read-out: CLH
[12] = Clearance in rat at 1 mg/kg, iv measured after 12 hrs; format: ADME, organism-based; details: in vivo
[13] = AUC in rat at 1 mg/kg, iv measured after 12 hrs; format: ADME, organism-based; set-up: time 12 hrs, dose 1 mg/kg, route iv; details: in vivo
[14] = AUC in dog at 1 mg/kg, iv; format: ADME, organism-based, Canis lupus familiaris; set-up: dose 1 mg/kg, route iv; details: in vivo
[15] = Clearance in rat hepatocytes measured per 10^6 cells; format: ADME, cell-based, Hepatocyte; details: read-out: CLH
[16] = Permeability in MDCK cells assessed as drug transport measured over 1 hr in presence of P-gp; format: ADME, cell-based, Canis lupus familiaris; details: dog
[17] = Clearance in dog at 1 mg/kg, iv; format: ADME, organism-based, Canis lupus familiaris; details: in vivo
[18] = Volume of distribution in dog at 1 mg/kg, iv; format: ADME, organism-based, Canis lupus familiaris; details: in vivo
[19] = Volume of distribution in rat at 1 mg/kg, iv measured after 12 hrs; format: ADME, organism-based; details: in vivo
[20] = Half life in rat at 1 mg/kg, iv measured after 12 hrs; format: ADME, organism-based; details: in vivo
[21] = Half life in dog at 1 mg/kg, iv; format: ADME, organism-based, Canis lupus familiaris; details: in vivo
[22] = Cmax in rat at 1 mg/kg, iv measured after 12 hrs; format: ADME, organism-based; set-up: dose 1 mg/kg, time 12 hrs, route iv; details: in vivo
[23] = Cmax in dog at 1 mg/kg, iv; format: ADME, organism-based, Canis lupus familiaris; set-up: dose 1 mg/kg, route iv; details: in vivo
[24] = Clearance in dog hepatocytes measured per 10^6 cells; format: ADME, cell-based, Canis lupus familiaris, Hepatocyte; details: read-out: CLH

| SMILES | IC50 (Ketohexokinase [1]) | IC50 (Ketohexokinase [2]) | solubility thermodynamic [3] | IC50 [4] | metabolised at 0.5 h [5] | IC50 (Ketohexokinase [6]) | IC50 [7] | metabolised at 0.5 h [8] | metabolised at 0.5 h [9] | metabolised at 0.5 h [10] | LC20 (Hepatocyte) | hepatocyte CLint [11] | hepatocyte CLint [15] | Drug transport [16] | hepatocyte CLint [24] | also measured |
| --- | --- | --- | --- | --- | --- | --- | --- | --- | --- | --- | --- | --- | --- | --- | --- | --- |
| C[C@H]1CCN1c1nc(-c2cnn(C3CNC3)c2)cc(C(F)(F)F)c1C#N | 2 nM | 15 nM | 40 µg/mL (≈ 110 µM) | 8 nM | 15% | 15 nM | 5 nM | 13% | 26% | 27% | 31000 nM |  |  |  |  |  |
| C[C@H]1CCN1c1nc(-c2cnn(CCN(C)C)c2)cc(C(F)(F)F)c1C#N | 82 nM | 28 nM | < 1 µg/mL | 4.5 nM | 76% | 22 nM | 44 nM | 100% | 83% | 100% | > 50000 nM |  |  |  |  |  |
| OC[C@H]1CCN1c1nc(-c2cnn(C3CNC3)c2)cc(C(F)(F)F)n1 | 40 nM |  | 690 µg/mL (≈ 1950 µM) | 108 nM | 4% |  | 32 nM | 20% | 0% | 0% | > 50000 nM | < 1.8 µL/min/1e6 cells | 10 µL/min/1e6 cells | 2.2% | 2 µL/min/1e6 cells | clearance [12]: 90 mL/min/kg; AUC at 12 h [13]: 0.531 µM·h; AUC [14]: 1.31 µM·h; clearance [17]: 37 mL/min/kg; Vd [18]: 5.2 L/kg; Vd [19]: 3.4 L/kg; half-life [20]: 0.7 h; half-life [21]: 3.7 h; Cmax [22]: 1050 nM; Cmax [23]: 2730 nM |
| C[C@H]1CCN1c1nc(-c2cnn(C3CNC3)c2)cc(C(F)(F)F)n1 | 6 nM | 5 nM | 450 µg/mL (≈ 1330 µM) | 13 nM | 7% | 4 nM | 3 nM | 21% | 11% | 20% | 48000 nM | 2.5 µL/min/1e6 cells | 11 µL/min/1e6 cells | 12% | 4.4 µL/min/1e6 cells |  |
| C[C@H]1CCN1c1nc(-c2cnn(C3CCNCC3)c2)cc(C(F)(F)F)c1C#N | 5 nM | 4 nM | 39 µg/mL (≈ 99.9 µM) | 2 nM | 0% | 4 nM | 6 nM | 24% | 2% | 11% | < 9000 nM | 3.5 µL/min/1e6 cells | 3.7 µL/min/1e6 cells | 8.7% | 4.9 µL/min/1e6 cells |  |
| C[C@H]1CCN1c1nc(-c2cnn(C3CCN(CCO)CC3)c2)cc(C(F)(F)F)c1C#N | 15 nM | 6 nM | 38 µg/mL (≈ 87.5 µM) |  | 26% | 4 nM | 8 nM | 32% | 38% | 57% | 17000 nM |  |  |  |  |  |
| C[C@H]1CCN1c1nc(-c2cnn(C3CN(C)C3)c2)cc(C(F)(F)F)n1 | 3 nM | 4 nM | 11 µg/mL (≈ 31.2 µM) |  | 20% | 5 nM | 2 nM | 87% | 86% | 100% | > 50000 nM | 5 µL/min/1e6 cells | 29 µL/min/1e6 cells | 22% | 49 µL/min/1e6 cells |  |
| C[C@H]1CCN1c1nc(-c2cnn(CC(=O)N(CCO)CCO)c2)cc(C(F)(F)F)c1C#N | 102 nM |  | 28 µg/mL (≈ 61.9 µM) | 16 nM | 27% |  | 35 nM | 30% | 9% | 16% | > 50000 nM | 43 µL/min/1e6 cells | 6.1 µL/min/1e6 cells | 2% | 2.6 µL/min/1e6 cells | clearance [12]: 23 mL/min/kg; AUC at 12 h [13]: 1.59 µM·h; Vd [19]: 4.8 L/kg; half-life [20]: 2.4 h; Cmax [22]: 2940 nM |
| C[C@H]1CCN1c1nc(-c2cn[nH]c2)cc(C(F)(F)F)c1C#N | 34 nM |  | 3 µg/mL (≈ 9.76 µM) | 6 nM | 52% |  | 19 nM | 100% | 81% | 98% | > 50000 nM | 49 µL/min/1e6 cells | 30 µL/min/1e6 cells | 20% | 150 µL/min/1e6 cells |  |
| C[C@H]1CCN1c1nc(-c2cnn(CC(=O)N3C[C@H](O)[C@@H](O)C3)c2)cc(C(F)(F)F)c1C#N | 76 nM |  | 21 µg/mL (≈ 46.6 µM) | 5 nM | 24% | 7 nM | 12 nM | 20% | 1% | 9% | > 50000 nM | 3.6 µL/min/1e6 cells | 2.3 µL/min/1e6 cells | 0.5% | < 1.8 µL/min/1e6 cells | clearance [12]: 101 mL/min/kg; AUC at 12 h [13]: 0.381 µM·h; AUC [14]: 2.5 µM·h; clearance [17]: 16 mL/min/kg; Vd [18]: 2.7 L/kg; Vd [19]: 4.6 L/kg; half-life [20]: 0.5 h; half-life [21]: 2.1 h; Cmax [22]: 1280 nM; Cmax [23]: 2650 nM |
| C[C@H]1CCN1c1nc(-c2cnn(C3CCN(C(=O)CN)CC3)c2)cc(C(F)(F)F)c1C#N | 16 nM | 6 nM | 12 µg/mL (≈ 26.8 µM) | 3 nM | 0% | 6 nM | 10 nM | 18% | 5% | 0% | 16000 nM |  |  |  |  |  |
| C[C@H]1CCN1c1nc(-c2cnn(C3CCOCC3)c2)cc(C(F)(F)F)c1C#N | 118 nM | 38 nM | 31 µg/mL (≈ 79.2 µM) | 40 nM | 49% | 33 nM | 61 nM | 98% | 98% | 98% | > 50000 nM |  |  |  |  |  |
| C[C@H]1CCN1c1nc(-c2cnn(C3CCN(C)CC3)c2)cc(C(F)(F)F)c1C#N | 20 nM | 6 nM | 11 µg/mL (≈ 27.2 µM) | 4 nM | 11% | 7 nM | 14 nM | 86% | 33% | 36% |  |  |  |  |  |  |
| C[C@H]1CCN1c1nc(-c2cnn(CC(=O)N3C[C@@H](O)[C@H](O)C3)c2)cc(C(F)(F)F)c1C#N | 109 nM |  | 19 µg/mL (≈ 42.2 µM) | 7 nM | 52% |  | 8 nM | 13% | 0% | 2% | > 50000 nM | 6.1 µL/min/1e6 cells | 2.2 µL/min/1e6 cells | 0.5% | 1.9 µL/min/1e6 cells | clearance [12]: 71 mL/min/kg; AUC at 12 h [13]: 0.53 µM·h; Vd [19]: 3.3 L/kg; half-life [20]: 0.6 h; Cmax [22]: 1830 nM |
| C[C@H]1CCN1c1nc(-c2cnn(C3CCNCC3)c2)cc(C(F)(F)F)n1 | 26 nM | 15 nM | 410 µg/mL (≈ 1120 µM) | 52 nM | 2% | 8 nM | 159 nM | 8% | 17% | 15% | 23000 nM |  |  |  |  |  |
| CC(=O)N1CCC(n2cc(-c3cc(C(F)(F)F)c(C#N)c(N4CC[C@@H]4C)n3)cn2)CC1 | 96 nM |  | 7 µg/mL (≈ 16.2 µM) | 19 nM | 45% |  | 45 nM | 66% | 30% | 32% |  |  |  |  |  |  |
| C[C@H]1CCN1c1nc(-c2cnn(CCO)c2)cc(C(F)(F)F)c1C#N | 48 nM |  | 1 µg/mL (≈ 2.85 µM) | 4 nM | 52% | 5 nM | 7 nM | 99% | 99% | 95% |  |  |  |  |  |  |
| C[C@H]1CCN1c1nc(-c2cnn(CC(=O)N3CCN(C)CC3)c2)cc(C(F)(F)F)c1C#N | 36 nM | 6 nM | 7 µg/mL (≈ 15.6 µM) | 4 nM | 60% | 9 nM | 7 nM | 93% | 52% | 95% | 18000 nM |  |  |  |  |  |
